Data reported in patent publication US4256765A, “Novel hydroxamic acid compounds, method for preparation thereof and medicaments containing such compounds” (priority 1978, dated 1981).

Experiments:
[1] = tested on: Salmonela typhimurium TA-98 and TA-100; assay: Mutagenic activity in microbial tests; assay type: cell-based, Salmonella typhimurium
Procedure: The screening of mutagenicity was carried out according to Ames test [Refer to Ames B. N. et al.: Proc: Natl. Acad. Sci. U.S.A., 72, 979-983 (1975)] which is now widely utilized all over the world as an examination for detection of mutagenicity.
Using the strain of Salmonela typhimurium TA-98 and TA-100 as the test bacteria, the mutageic activity was examined for the test compounds untreated with S-9 (9,000×g supernatant fraction of the rat liver homogenate induced with PCB) and the test compounds treated with S-9, respectively. The examined concentration of the test compounds was up to 40,000 μg/ml. Dimethyl sulfoxide (DMSO) was used as solvent.
The result of examination was judged to be positive, when the number of reverse mutation colony was twice comparing with the control group and the positive correlation between dosage and mutagenic activity of the test compound was recognized.

[2] = molecular target: T1, Urease extracted and purified from sword bean (Canavalia gladiata, UniProt A0AAN9R4W0); assay: Urease inhibitory activity (I50), method of Kobashi et al.; assay type: biochemical; details: read-out: Urease-inhibitory activity I50
T1 construct: nickel homohexamer by analogy with jack bean urease
Procedure: (1) Measurement of urease inhibitory activity of test compounds
Urease was extracted and purified from sword bean and molar concentrations of the test compounds causing 50% inhibition of urease activity (I50) were determined by the method of Kobashi et al. [Refer to Biochim, Biophys. Acta 227, 429-441 (1971).]

[3] = Urinary excretion in rats; assay type: in vivo, SD strain male rats; details: rat, po; 100 mg/Kg orally, SD male rats, urine excreted within 24 hours; read-out: Urinary excretion (%) (mean value ± S. E.)
Procedure: (2) Measurement of urinary excretion in rats
100 mg/Kg of the test compounds were administered orally to the SD strain male rats weighing about 300 g, and urine specimens excreted within 24 hours were collected by cross-over method. Amounts of the test compounds in urine were determined according to the method of Kobashi et al. [Refer to Yakugaku Zasshi 93 (12), 1564-1572 (1973); J. Biochem. 83, 287-293 (1973).]

Proteus mirabilis (OM-1) [4] = assay: Inhibitory effect on alkalization of urine; assay type: cell-based; details: for pH value (mean value ± S. E.) 8 hours after inoculation: normal human urine, Proteus mirabilis 2.75×10^5 cells/ml, 37° C.; for inhibition of the alkalization of urine (in words): Proteus mirabilis (OM-1) inoculated to normal human urine
Procedure: (§1) To 18 ml of normal human urine was added each test compound to make 10^-3 M and 2×10^-4 M test solution in a final concentration.
(§2) On the other hand, distilled water was added to 18 ml of normal human urine instead of the test compound to make a blank solution.
(§3) To the solution was inoculated intact Proteus mirabilis (OM-1) to make a cell suspension of 2.75×10^5 cells/ml and harvested at 37° C. Before inoculation and at 8 hours after inoculation, the pH values of the solution were measured.

Proteus mirabilis (OM-1) [5] = assay: Inhibitory effect on calculus formation in urine; assay type: cell-based; details: for inhibition of the calculus formation in urine (in words): Proteus mirabilis (OM-1) inoculated to normal human urine; for inhibition at 200 µM / inhibition at 1000 µM: Proteus mirabilis, 8 h, normal human urine, read-out: Inhibitory rate of calculus formation (%) (mean value ± S. E.) 8 hours after inoculation; for inhibition at 200 µM: 2 × 10^-4 M test compound; for inhibition at 1000 µM: 10^-3 M test compound
Procedure: as §1, §2, §3
Inhibitory rate of calculi formation was calculated by measuring the weight of formed calculi.

Acute toxicity (LD50) = assay type: in vivo; details: for acute toxicity (in words): rats; for LD50: rat, in vivo
Procedure: The test compounds were administered orally to SD strain male rats weighing about 270 g and SD strain female rats weighing about 170 g.

[6] = clinical study of urolithiasis; cited from earlier work

T1 sequence (A0AAN9R4W0 entry or part of it): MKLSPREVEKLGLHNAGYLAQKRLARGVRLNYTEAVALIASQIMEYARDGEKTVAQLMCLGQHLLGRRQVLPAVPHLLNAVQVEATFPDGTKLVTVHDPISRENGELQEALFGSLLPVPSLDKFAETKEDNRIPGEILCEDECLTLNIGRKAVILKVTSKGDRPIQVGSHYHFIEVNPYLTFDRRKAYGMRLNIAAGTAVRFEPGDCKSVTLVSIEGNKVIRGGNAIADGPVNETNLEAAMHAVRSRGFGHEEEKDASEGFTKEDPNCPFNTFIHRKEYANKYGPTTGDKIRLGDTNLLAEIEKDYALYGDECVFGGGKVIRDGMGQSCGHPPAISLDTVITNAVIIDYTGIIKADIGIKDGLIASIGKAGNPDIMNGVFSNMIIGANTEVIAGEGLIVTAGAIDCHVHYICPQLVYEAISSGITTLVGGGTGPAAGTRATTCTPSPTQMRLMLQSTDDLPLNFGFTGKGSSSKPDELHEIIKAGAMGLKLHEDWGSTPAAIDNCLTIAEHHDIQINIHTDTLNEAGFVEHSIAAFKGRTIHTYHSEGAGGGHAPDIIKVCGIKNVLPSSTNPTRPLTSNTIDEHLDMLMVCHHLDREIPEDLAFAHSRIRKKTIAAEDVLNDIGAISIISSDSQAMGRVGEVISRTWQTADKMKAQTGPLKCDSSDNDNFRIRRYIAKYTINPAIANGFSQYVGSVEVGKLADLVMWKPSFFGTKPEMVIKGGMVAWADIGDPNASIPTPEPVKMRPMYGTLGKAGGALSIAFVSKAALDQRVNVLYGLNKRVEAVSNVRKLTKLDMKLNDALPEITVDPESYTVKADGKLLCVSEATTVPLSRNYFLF

SMILES: COc1cccc(C(=O)NCC(=O)NO)c1 [2-(meta-methoxybenzamide)-acetohydroxamic acid]
- mutagenic activity (in words) [1]: show mutagenecity

SMILES: O=C(CNC(=O)c1ccc(Cl)cc1)NO [Benurestat, 2-(para-chlorobenzamide)-acetohydroxamic acid]
- mutagenic activity (in words) [1]: have the mutagenic activity

SMILES: CCC(CC)C(=O)NCC(=O)NO [Compound B, N-(2-ethyl-n-butyloyl)-glycinohydroxamic acid]
- IC50 [2]: 0.79 µM
- dose excreted at 24 h [3]: 5.37 ± 0.852%
- pH value (mean value ± S. E.) 8 hours after inoculation (Proteus mirabilis (OM-1) [4]; 2 × 10^-4 M test compound): 7.24 ± 0.04
- pH value (mean value ± S. E.) 8 hours after inoculation (Proteus mirabilis (OM-1) [4]; 10^-3 M test compound): 6.14 ± 0.01
- inhibition of the alkalization of urine (in words) (Proteus mirabilis (OM-1) [4]): inhibited the alkalization of urine
- inhibition of the calculus formation in urine (in words) (Proteus mirabilis (OM-1) [5]): inhibited
- inhibition at 200 µM (Proteus mirabilis (OM-1) [5]): 93.7 ± 1.6%
- inhibition at 1000 µM (Proteus mirabilis (OM-1) [5]): 95.7%
- acute toxicity (in words) (Acute toxicity (LD50); oral): low
- LD50 (Acute toxicity (LD50); po): > 9000 mg/kg

SMILES: O=C(CNC(=O)c1ccco1)NO [2-(2-furoylamino)-acetohydroxamic acid]
- mutagenic activity (in words) [1]: show mutagenecity

SMILES: CC(=O)Nc1cccc(C(=O)NCC(=O)NO)c1 [2-(meta-acetylaminobenzamide)-acetohydroxamic acid]
- mutagenic activity (in words) [1]: show mutagenecity

SMILES: CC(=O)NO [CH3 CONHOH, Acetohydroxamic acid]
- mutagenic activity (in words) [1]: have the mutagenic activity
- decreasing the amount of ammonia in urine and preventing the alkalization of urine (in words) [6]: effective

SMILES: CC(C)(C)C(=O)NCC(=O)NO [Compound A, N-(pivaloyl)-glycinohydroxamic acid]
- IC50 [2]: 4.38 µM
- dose excreted at 24 h [3]: 14.6 ± 1.82%
- pH value (mean value ± S. E.) 8 hours after inoculation (Proteus mirabilis (OM-1) [4]; 2 × 10^-4 M test compound): 8.41 ± 0.007
- pH value (mean value ± S. E.) 8 hours after inoculation (Proteus mirabilis (OM-1) [4]; 10^-3 M test compound): 7.33 ± 0.09
- inhibition of the alkalization of urine (in words) (Proteus mirabilis (OM-1) [4]): inhibited the alkalization of urine
- inhibition of the calculus formation in urine (in words) (Proteus mirabilis (OM-1) [5]): inhibited
- inhibition at 200 µM (Proteus mirabilis (OM-1) [5]): 50 ± 5.2%
- inhibition at 1000 µM (Proteus mirabilis (OM-1) [5]): 82 ± 8.2%
- acute toxicity (in words) (Acute toxicity (LD50); oral): low
- LD50 (Acute toxicity (LD50); oral, SD male and female rats): > 9000 mg/kg

SMILES: COc1ccc(C(=O)NCC(=O)NO)cc1 [2-(para-methoxybenzamide)-acetohydroxamic acid]
- mutagenic activity (in words) [1]: show mutagenecity

SMILES: CCC(C)C(=O)NCC(=O)NO (racemic) [Compound C, N-(DL-2-methyl-n-butyloyl)-glycinohydroxamic acid]
- IC50 [2]: 1.29 µM
- dose excreted at 24 h [3]: 9.25 ± 2.16%
- acute toxicity (in words) (Acute toxicity (LD50); oral): low
- LD50 (Acute toxicity (LD50); oral, SD male and female rats): > 9000 mg/kg
